Series [1] can be described thus: Drug metabolism in Crl:CD (SD) rat at 1 mg/kg, iv assessed as N-(5-cyanopyridin-2-yl)-7-formyl-3,4-dihydro-1,8-naphthyridine-1(2H)-carboxamide metabolite formation by LC-MS/MS analysis. Format: ADME, organism-based. The note with it: in vivo.
The nature of series [2]: Drug metabolism in rat liver microsomes assessed as N-(5-cyanopyridin-2-yl)-7-formyl-3,4-dihydro-1,8-naphthyridine-1(2H)-carboxamide metabolite formation in presence of NADPH by LC-MS analysis. Format: ADME, Microsome. On the technique in general: Liver microsomes are a subcellular fraction often used to study metabolism.
A short description of series [3]: Clearance in dog liver microsome at 10 mM measured after 15 mins in presence of NADPH by LC-MS analysis. Particulars: liver microsomes, read-out: CLH. Format: ADME, Canis lupus familiaris.
Series [4] in a line: Half life in rat liver S9 fraction at 1 uM in presence of NADPH incubated upto 120 mins by LC-MS/MS analysis. The class given is ADME, subcellular.
Series [5] in a line: Volume of distribution at steady state in Beagle dog at 0.1 mg/kg, iv or 0.3 mg/kg, po by LC-MS/MS analysis. The class given is ADME, organism-based, Canis lupus familiaris. Particulars: in vivo, read-out: Vdss.
The nature of series [6]: Thermodynamic solubility of compound in phosphate buffer at pH 6.8 measured after 15 mins by shake-flask method based LC-HRMS analysis. Particulars: read-out: Therm_solubility. The class given is physicochemical.
Series [7] can be described thus: Half life in human liver S9 fraction at 1 uM in presence of NADPH incubated upto 120 mins by LC-MS/MS analysis. Format: ADME, subcellular.
Series [8] in a line: Half-life in Beagle dog at 0.1 mg/kg, iv or 0.3 mg/kg, po by LC-MS/MS analysis. Particulars: in vivo. Format: ADME, organism-based, Canis lupus familiaris.
Series [9] is described as follows: Half life in human intestinal S9 fraction in presence of NADPH. The class given is ADME, subcellular, Intestine.
The nature of series [10]: Clearance in rat liver microsome at 10 mM measured after 15 mins in presence of NADPH by LC-MS analysis. The class given is ADME. Particulars: liver microsomes, read-out: CLH.
A short description of series [11]: Clearance in human cryopreserved hepatocytes at 1 uM incubated from 1 to 80 mins by LC-MS/MS analysis. The class given is ADME, cell-based, Hepatocyte. Particulars: time 1-80 min.
Series [12] in a line: Half life in dog intestinal S9 fraction in presence of NADPH. Format: ADME, subcellular, Canis lupus familiaris, Intestine. Particulars: time 120 min.
The nature of series [13]: Half life in mouse intestinal S9 fraction in presence of NADPH. The class given is ADME, subcellular, Intestine.
Series [14] is described as follows: Clearance in Sprague-Dawley rat at 0.5 mg/kg, iv or 3 mg/kg, po measured upto 24 hrs by LC-MS/MS analysis. Particulars: in vivo. Format: ADME, organism-based.
Series [15] can be described thus: Half life in dog liver S9 fraction at 1 uM in presence of NADPH incubated upto 120 mins by LC-MS/MS analysis. Format: ADME, subcellular, Canis lupus familiaris.
The nature of series [16]: Clearance in human liver microsome at 10 mM measured after 15 mins in presence of NADPH by LC-MS analysis. Format: ADME. Particulars: liver microsomes, read-out: CLH.
Series [17] can be described thus: Cmax in mouse xenografted with human Huh-7 cells at 12 mg/kg, po administered every other day for 8 days. Format: ADME, organism-based. On the set-up: route oral, time 8 day, dose 12 mg/kg. The note with it: in vivo. (A xenograft is tissue or cells of one species grown in another, often human tumour cells in immunodeficient mice.)
Series [18] is described as follows: Clearance in Beagle dog at 0.1 mg/kg, iv or 0.3 mg/kg, po by LC-MS/MS analysis. Particulars: in vivo. Format: ADME, organism-based, Canis lupus familiaris.
Series [19] can be described thus: Cmax in mouse xenografted with human Huh-7 cells at 6 mg/kg, po qd administered for 8 days. The class given is ADME, organism-based. Also noted: route oral, dose 6 mg/kg, time 8 day. Particulars: in vivo.
Series [20] can be described thus: Clearance in dog cryopreserved hepatocytes at 1 uM incubated from 1 to 80 mins by LC-MS/MS analysis. Format: ADME, cell-based, Canis lupus familiaris, Hepatocyte. Particulars: time 1-80 min.
A short description of series [21]: Half-life in female Balb/c mouse at 1 mg/kg, iv or 3 mg/kg, po. Format: ADME, organism-based. The note with it: in vivo.
Series [22] is described as follows: Half life in rat intestinal S9 fraction in presence of NADPH. Format: ADME, subcellular, Intestine.
A short description of series [23]: Half-life in Sprague-Dawley rat at 0.5 mg/kg, iv or 3 mg/kg, po measured upto 24 hrs by LC-MS/MS analysis. The class given is ADME, organism-based. The note with it: in vivo.
Series [24] is described as follows: Half life in mouse liver S9 fraction at 1 uM in presence of NADPH incubated upto 120 mins by LC-MS/MS analysis. Format: ADME, subcellular.
A short description of series [25]: Oral bioavailability in Beagle dog at 0.3 mg/kg by LC-MS/MS analysis. The class given is ADME, organism-based, Canis lupus familiaris. Particulars: Beagle, in vivo.
The nature of series [26]: Oral bioavailability in female Balb/c mouse at 3 mg/kg. Format: ADME, organism-based. The note with it: in vivo.
Series [27] is described as follows: Volume of distribution at steady state in female Balb/c mouse at 1 mg/kg, iv or 3 mg/kg, po. The class given is ADME, organism-based. Particulars: in vivo, read-out: Vdss.
The nature of series [28]: Clearance in mouse cryopreserved hepatocytes at 1 uM incubated from 1 to 80 mins by LC-MS/MS analysis. The class given is ADME, cell-based, Hepatocyte. The note with it: time 1-80 min.
A short description of series [29]: Apparent permeability of compound across basolateral to apical side in human Caco2 cells at 10 mM incubated for 120 mins by lucifer yellow based LC/MS/MS analysis. Format: ADME, cell-based. The note with it: Caco-2. For orientation: Caco-2 cells form a polarised layer with tight junctions and transporters.
The nature of series [30]: Clearance in rat cryopreserved hepatocytes at 1 uM incubated from 1 to 80 mins by LC-MS/MS analysis. The class given is ADME, cell-based, Hepatocyte. The note with it: time 1-80 min.
Series [31] can be described thus: Oral bioavailability in Crl:CD (SD) rat at 3 mg/kg measured upto 24 hrs by LC-MS/MS analysis. The class given is ADME, organism-based. Particulars: Crl:CD (SD), in vivo.
The nature of series [32]: Cmax in mouse xenografted with human Huh-7 cells at 3 mg/kg, po BID administered for 8 days. The class given is ADME, organism-based. Also noted: route oral, time 8 day, dose 3 mg/kg. The note with it: in vivo.
Series [33] in a line: AUC (0-48 hrs) in mouse xenografted with human Huh-7 cells at 3 mg/kg, po BID administered for 8 days. The class given is ADME, organism-based. On the set-up: route oral, dose 3 mg/kg, time 8 day. Particulars: in vivo, 192 h.
Series [34] in a line: AUC (0-48 hrs) in mouse xenografted with human Huh-7 cells at 6 mg/kg, po qd administered for 8 days. Format: ADME, organism-based. On the set-up: route oral, time 8 day, dose 6 mg/kg. Particulars: in vivo.
Series [35] in a line: Apparent permeability of compound across apical to basolateral side in human Caco2 cells at 10 mM incubated for 120 mins by lucifer yellow based LC/MS/MS analysis. The class given is ADME, cell-based. The note with it: Caco-2.
Series [36] in a line: Volume of distribution at steady state in Crl:CD (SD) rat at 1 mg/kg, iv or 3 mg/kg, po measured upto 24 hrs by LC-MS/MS analysis. Particulars: in vivo, read-out: Vdss. Format: ADME, organism-based.
Series [37] can be described thus: Clearance in mouse liver microsome at 10 mM measured after 15 mins in presence of NADPH by LC-MS analysis. The class given is ADME. The note with it: liver microsomes, read-out: CLH.
Series [38] in a line: Dissociation constant, pKa of compound by potentiometric titration method. The class given is physicochemical.
Series [39] is described as follows: AUC (0-48 hrs) in mouse xenografted with human Huh-7 cells at 12 mg/kg, po administered every other day for 8 days. The note with it: in vivo. The class given is ADME, organism-based. On the set-up: route oral, time 8 day, dose 12 mg/kg.

In brackets after ≈: the same amount, converted by molar mass.

`N#Cc1ccc(NC(=O)N2CCCc3ccc(CO)nc32)nc1`: the Drug metabolism in [1] and in series [2] was 1.3 nM throughout.

As a reminder, the half-life is the time in which the quantity being followed falls by half. One may read the Cmax as the peak of the concentration-time curve. A word on the bioavailability: it is dose-corrected exposure relative to a reference, in per cent. Low values mean poor availability, high ones good availability. For orientation: Papp B→A means the apparent permeability from the basolateral to the apical side of a cell layer. Broadly, the AUC is the area under the concentration-time curve, a measure of exposure. Usually Papp A→B stands for how fast a substance crosses the layer from the apical side. The pKa is the negative logarithm of the acid dissociation constant. A low value points to a stronger acid or weaker base. `COCCOc1cc(NC(=O)N2CCCc3cc(CN4CCN(C)CC4=O)c(C=O)nc32)ncc1C#N`: the microsomal CLint at […], 10000 µM in series [3] was determined as 34 µL/min/mg; in [10], 18 µL/min/mg; in series [16] it was 29 µL/min/mg; in series [37], 18 µL/min/mg. Moreover, the half-life at 1 µM in series [4] is over 2 h; in [7] it was over 2 h; in series [12], over 2 h; in [15], 0.867 h; in [24] it was over 2 h. Also, the Vd is 3 L/kg in series [5], 2.3 L/kg in [27] and 3.9 L/kg in series [36]. Further, the solubility thermodynamic at […] in series [6] is 16 µM (≈ 8.12 µg/mL). Further, the half-life is 6.5 h in [8]; over 2 h in series [9]; over 2 h in series [13]; 1.4 h in series [21]; over 2 h in series [22]; 4.4 h in series [23]. The CLH was determined as 5.7 µL/min/mg in series [11], 6.5 µL/min/mg in series [20], 2.5 µL/min/mg in series [28] and 11 µL/min/mg in series [30]. Also, the clearance was found to be 19 mL/min/kg in series [14] and 8 mL/min/kg in series [18]. Also, the Cmax stood at 1260 nM in series [17], 770 nM in series [19] and 180 nM in [32]. Also, the bioavailability in [25] was 69%; in [31], 20%. In addition, the F in [26] was 20%. Besides, the Papp B→A at 2 h, 10000 µM in [29] was found to be 11 ×10⁻⁶ cm/s. In [33], this compound registered an exposure (AUC) of 3.6 µM·h. Also, the AUC at 192 h is 5.2 µM·h in series [34] and 7.2 µM·h in series [39]. The apical-to-basolateral permeability (Papp A→B) at 2 h, 10000 µM in series [35] turned out to be 7.4 ×10⁻⁶ cm/s. The compound also returned a pKa in series [38] of 5.3.

For the origin of these results see ChEMBL document CHEMBL4715854, “Discovery of Roblitinib (FGF401) as a Reversible-Covalent Inhibitor of the Kinase Activity of Fibroblast Growth Factor Receptor 4” (J Med Chem, 2020).
